Tests used:
[1] = system: Digitaria ischaemum; test: Activity test of compositions, soil sealing treatment (S); assay type: in vivo; conditions: A alone 60 g a.i./ha, fresh weight inhibition rate 21 days after treatment
Excerpt: (§1) The required active ingredient B was purchased from a reagent company or synthesized by a known method. The technical materials were all dissolved with acetone solvents and diluted with an aqueous solution of 0.1% Tween 80 emulsifier, which were to be used immediately after dilution.
The test soil was quantitatively filled to 3/4 of the pot, and then watered from the bottom of the pot to completely wet the soil to saturation. The test weed seeds were accelerated to just germinate, and then evenly and quantitatively sowed on the soil surface, covered with 0.5-1 cm soil according to the sizes of the seeds, and ready for use 72 hours after sowing.
(§2) Each treatment was repeated 4 times. Four pots with 20 weed seeds sowed per pot were treated each time.
(§3) The well-sowed test materials were evenly placed on a platform with an area of 0.5 m^2, and foliage spraying was carried out by the 3WP-2000-type walking spray tower at a dosage of 450 kg/ha and a spray pressure of 0.3 MPa. After all the solution was sprayed, the air valve was closed, and 30 seconds later, the door of the spray tower was opened, and the nutritional bowl was taken out. Then the air valve was opened, and the spray tube was cleaned by spraying 50 ml of water.
(§4) A method for investigating absolute numbers was employed. Whole seedlings of survival weeds were cut off with a blade along the soil surface, and the fresh weight of the weeds was weighed using an analytical balance. For dead weeds, the fresh weight thereof was zero.
(§5) The investigation was performed 21 days after the treatment for once in total.
(§6) The theoretical fresh weight inhibition rate of a mixed combination of each treatment was calculated by the Gowing method (E0=X+Y−X*Y/100). […] An optimal ratio was determined according to the actual control effects, characteristics of herbicides, and balance of the formulation. In the formula, X represents the fresh weight inhibition rate of the active ingredient A in a dosage of P; Y represents the fresh weight inhibition rate of the active ingredient B in a dosage of Q. The statistical results are shown in Table 4.

[2] = system: Soybean; conditions: in vivo, 4 weeks
Excerpt: (§7) Monocotyledonous and dicotyledonous weed seeds as well as major crop seeds (wheat, corn, rice, soybean, peanut, cotton, oilseed rape, millet, and sorghum) were placed in plastic pots filled with soil, and then covered with 0.5-2 cm of soil. The test compounds of the present invention were individually dissolved with acetone, then added with Tween 80, diluted with a certain amount of water to obtain a solution of a certain concentration, and sprayed immediately after sowing. After drug application, cultivation was conducted for 4 weeks in a greenhouse and then the experimental results were observed.

[3] = system: Peanut; conditions: in vivo, 4 weeks
Excerpt: as §7

[4] = system: Corn; conditions: in vivo, 4 weeks
Excerpt: as §7

[5] = system: Cotton; conditions: in vivo, 4 weeks
Excerpt: as §7

[6] = system: Cyperus glomeratus; test: Activity test of compositions, early post-emergence foliage spray (F-EP); assay type: in vivo; conditions: for Control effect of B applied alone in a corresponding dose: 21 days after treatment
Description: as §1
(§8) Weeds were cultivated by a pot culture method. […] Weed seeds with plump and uniform grains were selected, soaked in lukewarm water at 25° C. for 6 hours, and accelerated to germinate in a 28° C. biochemical incubator (in darkness). The weed seeds that had just germinated were evenly placed on the surface of the soil and then covered with 0.5-1 cm soil according to the sizes of seeds.
(§9) The culture was carried out in a controllable sunlight greenhouse at 20 to 30° C., in natural light, and with relative humidity of 57% to 72%.
as §2
(§10) The agents were used once in total in the experiment. In the stage of 1-2 leaves, the weeds were thinned out to maintain 10 strains per treatment for later use.
(§11) The well-cultured test materials were evenly placed on a platform with an area of 0.5 m^2, and foliage spraying was carried out by the 3WP-2000-type walking spray tower at a dosage of 450 kg/ha and a spray pressure of 0.3 MPa. After all the solution was sprayed, the air valve was closed, and 30 seconds later, the door of the spray tower was opened, and the nutritional bowl was taken out. Then the air valve was opened, and the spray tube was cleaned by spraying 50 ml of water. The test materials were transferred to and routinely cultured in a greenhouse after the treatment.
as §4, §5, §6

[7] = system: Echinochloa crus-galli var. austrojaponensis; test: as above; assay type: in vivo; conditions: fresh weight inhibition rate 21 days after treatment
Description: as §1, §8, §9, §2, §10, §11, §4, §5, §6

[8] = system: Echinochloa glabrescens; test: as above; assay type: in vivo; conditions: A alone 30 g a.i./ha, fresh weight inhibition rate 21 days after treatment
Description: as §1, §8, §9, §2, §10, §11, §4, §5, §6

[9] = system: Soliva anthemifolia; test: as above; assay type: in vivo; conditions: A alone 60 g a.i./ha, fresh weight inhibition rate 21 days after treatment
Description: as §1, §8, §9, §2, §10, §11, §4, §5, §6

[10] = system: Echinochloa crusgalli; test: Weed control effect evaluation in rice fields; assay type: in vivo; conditions: activity level, 0.5-leaf stage, flooded pot, 14th day, weed resistant to pyrazosulfuron
Excerpt: (§12) After rice field soil was loaded into a 1/1,000,000 ha pot, the seeds of Echinochloa crusgalli, Echinochloa phyllopogon, Monochoria vaginalis, Leptochloa chinensis, and Ludwigia prostrata were sowed and gently covered with soil, then left to stand in a greenhouse with water storage of 0.5-1 cm deep. The tuber of Sagittaria trifolia was planted in the next day or 2 days later. The water storage was kept at a depth of 3-4 cm thereafter. When the Echinochloa crusgalli, Echinochloa phyllopogon, and Leptochloa chinensis reached their 0.5-leaf stages and the Sagittaria trifolia reached the time point of the primary leaf stage, WP or SC aqueous dilutions of the compounds of the present invention formulated according to common formulation methods were homogeneously dripped to the specified effective amount using pipettes for treatment.

[11] = system: Echinochloa phyllopogon; test: Weed control effect evaluation in rice fields; assay type: in vivo; conditions: activity level, 0.5-leaf stage, flooded pot, 14th day, weed resistant to pyrazosulfuron
Excerpt: as §12

[12] = system: Beckmannia syzigachne; test: Pre-emergence test experiment; assay type: in vivo; conditions: activity level, sprayed after sowing, 4 weeks
Excerpt: as §7

[13] = system: Setaria viridis; test: Pre-emergence test experiment; assay type: in vivo; conditions: activity level, sprayed after sowing, 4 weeks
Excerpt: as §7

[14] = system: Cyperus glomeratus; test: Activity test of compositions, soil sealing treatment (S); assay type: in vivo; conditions: A alone 30 g a.i./ha, fresh weight inhibition rate 21 days after treatment
Description: as §1
(§13) Weeds were cultivated in a controllable sunlight greenhouse at 20 to 30° C., in natural light, and with relative humidity of 57% to 72%. […] The test soil was quantitatively filled to 3/4 of the pot, and then watered from the bottom of the pot to completely wet the soil to saturation. The test weed seeds were accelerated to just germinate, and then evenly and quantitatively sowed on the soil surface, covered with 0.5-1 cm soil according to the sizes of the seeds, and ready for use 72 hours after sowing.
as §2, §3, §4, §5, §6

[15] = system: Oxybasis glauca; test: as above; assay type: in vivo; conditions: for Control effect of B applied alone in a corresponding dose: 21 days after treatment
Description: as §1, §13, §2, §3, §4, §5, §6

[16] = system: Arivela viscosa; test: as above; assay type: in vivo; conditions: A alone 60 g a.i./ha, fresh weight inhibition rate 21 days after treatment
Description: as §1, §13, §2, §3, §4, §5, §6

[17] = system: Echinochloa glabrescens; test: as above; assay type: in vivo; conditions: A alone 30 g a.i./ha, fresh weight inhibition rate 21 days after treatment
Description: as §1, §13, §2, §3, §4, §5, §6

[18] = system: Rice; conditions: japonica, in vivo, 7 days
Description: In addition, after being loaded into the 1/1,000,000 ha pot, the rice field soil was leveled to keep the water storage at a depth of 2-3 cm. The rice (japonica rice) at 3-leaf stage was transplanted at a transplanting depth of 2-3 cm the next day. The compounds of the present invention were treated in the same manner as above on the 3rd day after the transplantation.
The effects were evaluated according to the above-mentioned activity level criteria.

[19] = system: Lolium perenne; test: Pre-emergence test experiment; assay type: in vivo; conditions: activity level (fresh weight growth control rate), sprayed after sowing, 4 weeks
Excerpt: as §7

[20] = system: Wheat; conditions: in vivo
Excerpt: as §7

[21] = system: Direct sowing rice; conditions: in vivo, 7 days
Description: To simulate a field of direct sowing rice, a 5-cm water layer was added to the container first, fully mixed with mud to form slurry, and then rice seeds were scattered in. After the slurry became clear, the water layer was removed. The soil was kept moist and applied with drug solution evenly by spraying. The soil was rehydrated to 3-cm deep 3-4 days after drug application.
The doses of the compounds used in the above-mentioned experiments were 3.75, 7.5, 15, 30, 60, and 120 g a.i./ha. […] The effects were evaluated according to the above-mentioned activity level criteria.

CC(C)C12CCC(C)(O1)C(OCc1c(F)cccc1Br)C2 (racemic) [Compound 1]
Control effect of A applied alone in a corresponding dose (%) [1]: 56.4%
Soybean 60 g a.i./ha [2]: 0
Peanut 60 g a.i./ha [3]: 0
Corn 60 g a.i./ha [4]: 0
Cotton 60 g a.i./ha [5]: 0
Control effect of A applied alone in a corresponding dose (%) ([6]; A alone 30 g a.i./ha, fresh weight inhibition rate 21 days after treatment): 51.5%
Control effect of A applied alone in a corresponding dose (%) ([7]; A alone 30 g a.i./ha): 38.4%
Control effect of A applied alone in a corresponding dose (%) ([7]; A alone 60 g a.i./ha): 52.7%
Control effect of A applied alone in a corresponding dose (%) [8]: 48.7%
Control effect of A applied alone in a corresponding dose (%) [9]: 22.8%
Echinochloa crusgalli 7.5 g a.i./ha [10]: 9
Echinochloa phyllopogon 7.5 g a.i./ha [11]: 9
Beckmannia syzigachne 60 g a.i./ha [12]: 9
Setaria viridis 30 g a.i./ha [13]: 9
Control effect of A applied alone in a corresponding dose (%) [14]: 56.1%
Control effect of A applied alone in a corresponding dose (%) ([15]; A alone 60 g a.i./ha, fresh weight inhibition rate 21 days after treatment): 19.8%
Control effect of A applied alone in a corresponding dose (%) [16]: 18.5%
Control effect of A applied alone in a corresponding dose (%) [17]: 58.3%
Rice 30 g a.i./ha [18]: 0

CC(C)C12CCC(C)(O1)C(OCc1ccccc1Br)C2 (stereo not drawn) [Control compound A]
Lolium perenne 30 g a.i./ha [19]: 1 (Level 1: growth control rate is less than 10%)

CC(C)C12CCC(C)(O1)C(OCc1c(F)cccc1Cl)C2 (stereo not drawn) [Control compound C]
phytotoxicity to wheat [20]: unacceptable phytotoxicity
Direct sowing rice 60 g a.i./ha [21]: 9
Rice 60 g a.i./ha [18]: 9

CC(C)N1C(=O)c2ccccc2NS1(=O)=O [bentazone]
Control effect of B applied alone in a corresponding dose ([6]; B alone 300 g a.i./ha): 43.8

C#CCN1C(=O)COc2cc(F)c(N3C(=O)C4=C(CCCC4)C3=O)cc21 [flumioxazin]
Control effect of B applied alone in a corresponding dose ([15]; B alone 30 g a.i./ha): 55.6

CCC(=O)Nc1ccc(Cl)c(Cl)c1 [propanil]
Control effect of B applied alone in a corresponding dose ([6]; B alone 900 g a.i./ha): 19.7

COC(=O)c1sccc1S(=O)(=O)NC(=O)Nc1nc(C)nc(OC)n1 [thifensulfuronmethyl, thifensulfuron-methyl]
Control effect of B applied alone in a corresponding dose ([15]; B alone 7.5 g a.i./ha): 68.6
